Here are results for one compound from patent US11666589B2, “Pivarubicin and benzarubicin compositions” (Paradox Pharmaceuticals, Inc., priority 2020, dated 2023).

For data set [1], the system named is 32D.3, J774.2 and 293 cells. Description: Biotransformation to AD 288 after uptake into cells. It counts as in vitro ADME. As to conditions: initial (1 hour), 1 μM. An excerpt: (§1) Intracellular drug was extracted and analyzed by fluorescence HPLC as described previously.
In the next data set the target is T1, PKCd (Mus musculus, UniProt P28867).
T1 construct: endogenous in cells; host or cells: 32D.3 murine myeloid cells
Description: PKCd translocation (cell fractionation, immunoblot). Type of data set: cell-based, murine. The settings on record: within 4 hours of treatment with 5 μM; 32D.3 cells. The source says: Inhibition of PKCd activity also selectively impedes pivarubicin cytotoxicity.
On the technique in general: In western blotting, separated proteins are transferred to a membrane and probed.

The test system of data set [2] is 293 embryonic human kidney cells. Put plainly: Drug biotransformation analysis (HPLC of intracellular drug) in 293 cells. Type of data set: in vitro ADME.
From the text: as §1

The test system of data set [3] is human LNCaP prostate cancer cells. Put plainly: Pivarubicin cytotoxicity after PKCd siRNA transfection. The settings on record: PKCd-siRNA-transfected cells. Type of data set: cell-based.
Data set [4] concerns LNCaP human prostate cancer cells transfected with Bcl-2. Put plainly: MTT cytotoxicity in Bcl-2 transfected LNCaP cells. As to conditions: 5 μM for 1 h, 72 h drug-free. Type of data set: cell-based. How it is done: (§2) For the results shown in FIG. 5A, LNCaP cells transfected with Bcl-2 expression vector were assessed for doxorubicin or pivarubicin cytotoxicity, compared to cells transfected with empty vectors. Cells were exposed to 5 μM drug for 1 h, washed, and further incubated for 72 h in drug-free medium. Viability was determined by the MTT assay. For the results shown in FIG. 5B, pivarubicin cytotoxicity in HL-60 cells transfected with Bcr-Abl or Bcl-XL expression vectors were assessed for doxorubicin or pivarubicin cytotoxicity and compared as described for FIG. 5A.

For data set [5], the system named is J774.2 murine macrophage-like cells. Put plainly: Drug biotransformation analysis (HPLC of intracellular drug) in J774.2 cells. Type of data set: in vitro ADME.
From the text: as §1

Another data set deals with 32D.3 cells. Put plainly: Analysis of apoptosis (cytochrome c release immunoblot, TUNEL). Type of data set: cell-based, murine. The settings on record: 5 μM for 1 hour. How it is done: Detection of DNA fragmentation in apoptotic cells by the TUNEL assay and immunoblot analyses of cytochrome c release were performed as described previously.
Once distributed into microsomal membranes, pivarubicin triggered rapid, mitochondrial-dependent apoptosis that was independent of cell cycle arrest. Marked release of cytochrome c into the cytosol as an indicator of mitochondrial depolarization and dysfunction is detected within 5 hours of drug treatment, while DNA fragmentation, as detected by TUNEL staining, is abundant by 6 hours.
In a study of Cytochrome c (Cyt C) release by pivarubicin (PIV) and control (C), 32D.3 cells were exposed to 5 μM pivarubicin for 1 hour, then incubated in drug-free medium for an additional 4 hours. Cells were then fractionated to isolate the cytosolic fraction, subjected to immunoblotting and treated with anti-cytochrome c monoclonal antibody (1:250) for 2 hours, followed by a 1-hour treatment with 1:1000 dilution of horseradish peroxidase-conjugated goat anti-mouse second antibody as described previously. Proteins were detected by chemiluminescence (FIG. 3A). […] Individual fields of cells were detected for both DNA 3′-end labeling (green: grayscale image in FIG. 3D) or total cellular DNA staining by propidium iodide (red: grayscale images in FIGS. 3C and 3E). […]

Data set [6] relates to 32D.3 murine myeloid cells. Put plainly: Drug biotransformation analysis (HPLC of intracellular drug) in 32D.3 cells. It counts as in vitro ADME.
From the text: as §1

The subject of data set [7] is HL-60 cells transfected with Bcr-Abl. Put plainly: Cytotoxicity in Bcr-Abl transfected HL-60 cells. Type of data set: cell-based, human. The method, then: as §2
In data set [8] the test system is HL-60 human promyelocytic leukemia cells transfected with Bcl-XL. Description: Cytotoxicity in Bcl-XL transfected HL-60 cells. The settings on record: 5 μM for 1 h, 72 h drug-free. It counts as cell-based. The method, then:
as §2

T1 sequence (P28867 whole entry): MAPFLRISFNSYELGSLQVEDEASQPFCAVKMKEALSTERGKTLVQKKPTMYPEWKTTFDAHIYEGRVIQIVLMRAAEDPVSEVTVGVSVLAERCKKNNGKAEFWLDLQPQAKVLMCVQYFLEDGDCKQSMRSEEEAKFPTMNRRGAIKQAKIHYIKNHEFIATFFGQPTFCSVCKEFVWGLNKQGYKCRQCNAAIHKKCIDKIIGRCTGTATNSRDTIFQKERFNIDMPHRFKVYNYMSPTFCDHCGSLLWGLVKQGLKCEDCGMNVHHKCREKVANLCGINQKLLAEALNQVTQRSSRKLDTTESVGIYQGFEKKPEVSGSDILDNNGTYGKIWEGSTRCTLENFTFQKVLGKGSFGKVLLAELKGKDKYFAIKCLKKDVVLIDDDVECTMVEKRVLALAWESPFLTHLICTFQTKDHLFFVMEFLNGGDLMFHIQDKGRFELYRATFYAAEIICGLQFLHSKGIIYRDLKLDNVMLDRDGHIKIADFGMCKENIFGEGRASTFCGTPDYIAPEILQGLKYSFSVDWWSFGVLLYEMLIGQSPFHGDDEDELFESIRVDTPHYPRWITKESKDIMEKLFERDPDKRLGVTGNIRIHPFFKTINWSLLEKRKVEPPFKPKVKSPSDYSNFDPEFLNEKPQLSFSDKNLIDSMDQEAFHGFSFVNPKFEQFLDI

For the compound `COc1cccc2c1C(=O)c1c(O)c3c(c(O)c1C2=O)C[C@@](O)(C(=O)COC(=O)C(C)(C)C)C[C@@H]3O[C@H]1C[C@H](NCc2ccccc2)[C@H](O)[C@H](C)O1` [Pivarubicin, N-Benzyladriamycin-14-pivalate], the drug initially biotransformed entry in [1] was “less than 10%”. Also, the PKCd translocation result on PKCd was “translocates from the cytosolic to the membrane fraction”. The “% Parent Compound” value in data set [2] (293, 1 hr, 1 μM drug, 37° C.) stood at 98%; in [2] (293, 8 hr (1 hr drug + 7 hours drug-free medium)), 94%; in [5] (J774.2, 1 hr, 1 μM drug, 37° C.) it was 90%; in [5] (J774.2, 8 hr (1 hr drug + 7 hours drug-free medium)) it was 90%; in data set [6] (32D.3, 1 hr, 1 μM drug, 37° C.), 100%; in data set [6] (32D.3, 8 hr (1 hr drug + 7 hours drug-free medium)), 96%. Also, in data set [3], the “increase in concentration required to achieve 50% cell kill” value came to 2.5 fold. In addition, the “effect of Bcl-2 overexpression on rate of drug-induced apoptosis” value in data set [4] is listed as “do not impede”. The “time to marked release of cytochrome c into the cytosol” value in the data set on 32D.3 cells (then drug-free medium) was ≤ 5 h. The “DNA fragmentation detected by TUNEL staining” value in the data set on 32D.3 cells (by 6 hours) is on record as “abundant”. For the same compound, the “effect of Bcr-Abl on cytotoxicity” value in [7] is on record as “no inhibitory effect”. Further, the “effect of Bcl-XL overexpression on rate of drug-induced apoptosis” value in data set [8] was “do not impede”.
